In US6358885B1, “Substituted phenylheterocyclic herbicides” (Mississippi State University, priority 1992, dated 2002):

What was measured:
[1] = system: wild oat; test: Test B preemergence/postemergence greenhouse plant response rating 0 to 10; assay type: in vivo, Avena fatua; conditions: 0 to 10 scale
How it was run: (§1)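 Postemergence treatment of plants two to eighteen cm tall ran alongside preemergence treatment of planted seed, each using compound in a non-phytotoxic solvent.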

[2] = system: barley; test: Test C preemergence/postemergence greenhouse plant response rating 0 to 100; assay type: in vivo, Hordeum vulgare; conditions: POSTEMERGENCE; for Plant response rating Barley Igri: 0 to 100 scale
How it was run: (§2)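 Compounds in non-phytotoxic solvent applied preemergence to sandy loam one day after planting, postemergence at the 1–4 leaf stage, or to ~2.5 cm floodwater over silt loam.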

[3] = system: morningglory; test: as above; assay type: in vivo, Ipomoea hederacea; conditions: POSTEMERGENCE; for Plant response rating, Morningglory: 0 to 100 scale
How it was run: as §2

[4] = system: soybean; test: as above; assay type: in vivo, Glycine max; conditions: POSTEMERGENCE; for Plant response rating, Soybean: 0 to 100 scale
How it was run: as §2

[5] = system: wheat; test: Test B preemergence/postemergence greenhouse plant response rating 0 to 10; assay type: in vivo, Triticum aestivum; conditions: 0 to 10 scale
How it was run: as §1

[6] = system: chickweed; test: Test C preemergence/postemergence greenhouse plant response rating 0 to 100; assay type: in vivo, Stellaria media; conditions: POSTEMERGENCE; for Plant response rating, Chickweed: 0 to 100 scale
How it was run: as §2

[7] = system: umbrella sedge; test: Test C flood test plant response rating 0 to 100; assay type: in vivo, Cyperus difformis; conditions: for Plant response rating (0 to 100), Umbrella sedge: under POSTEMERGENCE head (flood test species); for Plant response rating Umbrella sedge: flood test species listed under POSTEMERGENCE, 0 to 100 scale
How it was run: as §2

[8] = system: sorghum; test: Test B preemergence/postemergence greenhouse plant response rating 0 to 10; assay type: in vivo, Sorghum bicolor; conditions: 0 to 10 scale
How it was run: as §1

[9] = system: downy brome; test: Test C preemergence/postemergence greenhouse plant response rating 0 to 100; assay type: in vivo, Bromus tectorum; conditions: POSTEMERGENCE; for Plant response rating Downy Brome: 0 to 100 scale
How it was run: as §2

[10] = system: rape; test: Test B preemergence/postemergence greenhouse plant response rating 0 to 10; assay type: in vivo, Brassica napus; conditions: 0 to 10 scale
How it was run: as §1

[11] = system: bedstraw; test: Test C preemergence/postemergence greenhouse plant response rating 0 to 100; assay type: in vivo, Galium aparine; conditions: POSTEMERGENCE
How it was run: as §2

[12] = system: soybean; test: Test B preemergence/postemergence greenhouse plant response rating 0 to 10; assay type: in vivo, Glycine max; conditions: 0 to 10 scale
How it was run: as §1

[13] = system: chickweed; test: as above; assay type: in vivo, Stellaria media; conditions: 0 to 10 scale
How it was run: as §1

[14] = system: wild buckwheat; test: Test C preemergence/postemergence greenhouse plant response rating 0 to 100; assay type: in vivo, Polygonum convolvulus; conditions: POSTEMERGENCE; for Plant response rating, Wild buckwheat: 0 to 100 scale
How it was run: as §2

[15] = system: corn; test: Test B preemergence/postemergence greenhouse plant response rating 0 to 10; assay type: in vivo, Zea mays; conditions: 0 to 10 scale
How it was run: as §1

[16] = system: morningglory; test: as above; assay type: in vivo, Ipomoea hederacea; conditions: 0 to 10 scale
How it was run: as §1

[17] = system: crabgrass; test: as above; assay type: in vivo, Digitaria spp.; conditions: 0 to 10 scale
How it was run: as §1

[18] = system: purple nutsedge; test: as above; assay type: in vivo, Cyperus rotundus; conditions: 0 to 10 scale
How it was run: as §1

SMILES: C=C(Cl)COc1cc(-c2nn3c(c2Cl)CCCC3)c(F)cc1Cl [Compound 40]
- Plant response rating, Wild oat ([1]; POSTEMERGENCE, Rate 50 g/ha): 4
- Plant response rating, Wild oat ([1]; PREEMERGENCE, Rate 50 g/ha): 0
- Plant response rating, Wild oat ([1]; Rate 200 g/ha, POSTEMERGENCE): 5
- Plant response rating Barley Igri ([2]; 62 g/ha): 30
- Plant response rating Barley Igri ([2]; 125 g/ha): 40
- Plant response rating (0 to 100), Barley Igri ([2]; Rate 16 g/ha): 20
- Plant response rating (0 to 100), Barley Igri ([2]; Rate 31 g/ha): 30
- Plant response rating, Morningglory ([3]; 62 g/ha): 50
- Plant response rating, Morningglory ([3]; 125 g/ha): 70
- Plant response rating (0 to 100), Morningglory ([3]; Rate 16 g/ha): 50
- Plant response rating (0 to 100), Morningglory ([3]; Rate 31 g/ha): 50
- Plant response rating, Soybean ([4]; 62 g/ha): 50
- Plant response rating, Soybean ([4]; 125 g/ha): 60
- Plant response rating (0 to 100), Soybean ([4]; Rate 16 g/ha): 40
- Plant response rating (0 to 100), Soybean ([4]; Rate 31 g/ha): 40
- Plant response rating, Wheat ([5]; POSTEMERGENCE, Rate 50 g/ha): 4
- Plant response rating, Wheat ([5]; PREEMERGENCE, Rate 50 g/ha): 0
- Plant response rating, Wheat ([5]; Rate 200 g/ha, POSTEMERGENCE): 6
- Plant response rating, Wheat ([5]; Rate 200 g/ha, PREEMERGENCE): 2
- Plant response rating, Chickweed ([6]; 62 g/ha): 60
- Plant response rating, Chickweed ([6]; 125 g/ha): 90
- Plant response rating (0 to 100), Chickweed ([6]; Rate 16 g/ha): 30
- Plant response rating (0 to 100), Chickweed ([6]; Rate 31 g/ha): 30
- Plant response rating (0 to 100), Umbrella sedge ([7]; Rate 16 g/ha): 0
- Plant response rating (0 to 100), Umbrella sedge ([7]; Rate 31 g/ha): 0
- Plant response rating Umbrella sedge ([7]; 62 g/ha): 10
- Plant response rating Umbrella sedge ([7]; 125 g/ha): 70
- Plant response rating, Sorghum ([8]; POSTEMERGENCE, Rate 50 g/ha): 4
- Plant response rating, Sorghum ([8]; PREEMERGENCE, Rate 50 g/ha): 0
- Plant response rating, Sorghum ([8]; Rate 200 g/ha, POSTEMERGENCE): 5
- Plant response rating, Sorghum ([8]; Rate 200 g/ha, PREEMERGENCE): 1
- Plant response rating Downy Brome ([9]; 62 g/ha): 50
- Plant response rating Downy Brome ([9]; 125 g/ha): 60
- Plant response rating (0 to 100), Downy Brome ([9]; Rate 16 g/ha): 30
- Plant response rating (0 to 100), Downy Brome ([9]; Rate 31 g/ha): 40
- Plant response rating, Rape ([10]; POSTEMERGENCE, Rate 50 g/ha): 4
- Plant response rating, Rape ([10]; PREEMERGENCE, Rate 50 g/ha): 8
- Plant response rating, Rape ([10]; Rate 200 g/ha, POSTEMERGENCE): 8
- Plant response rating, Rape ([10]; Rate 200 g/ha, PREEMERGENCE): 6
- Plant response rating, Bedstraw ([11]; 125 g/ha, 0 to 100 scale): 60
- Plant response rating (0 to 100), Bedstraw ([11]; Rate 16 g/ha): 30
- Plant response rating (0 to 100), Bedstraw ([11]; Rate 31 g/ha): 30
- Plant response rating, Soybean ([12]; POSTEMERGENCE, Rate 50 g/ha): 5
- Plant response rating, Soybean ([12]; PREEMERGENCE, Rate 50 g/ha): 0
- Plant response rating, Soybean ([12]; Rate 200 g/ha, POSTEMERGENCE): 8
- Plant response rating, Soybean ([12]; Rate 200 g/ha, PREEMERGENCE): 2
- Plant response rating, Chickweed ([13]; POSTEMERGENCE, Rate 50 g/ha): 10
- Plant response rating, Chickweed ([13]; POSTEMERGENCE, Rate 200 g/ha): 10
- Plant response rating, Chickweed ([13]; PREEMERGENCE, Rate 50 g/ha): 0
- Plant response rating, Chickweed ([13]; Rate 200 g/ha, PREEMERGENCE): 5
- Plant response rating, Wild buckwheat ([14]; 62 g/ha): 100
- Plant response rating, Wild buckwheat ([14]; 125 g/ha): 100
- Plant response rating (0 to 100), Wild buckwheat ([14]; Rate 16 g/ha): 50
- Plant response rating (0 to 100), Wild buckwheat ([14]; Rate 31 g/ha): 50
- Plant response rating, Corn ([15]; POSTEMERGENCE, Rate 50 g/ha): 4
- Plant response rating, Corn ([15]; POSTEMERGENCE, Rate 200 g/ha): 5
- Plant response rating, Corn ([15]; PREEMERGENCE, Rate 50 g/ha): 0
- Plant response rating, Corn ([15]; Rate 200 g/ha, PREEMERGENCE): 1
- Plant response rating, Morningglory ([16]; POSTEMERGENCE, Rate 50 g/ha): 3
- Plant response rating, Morningglory ([16]; PREEMERGENCE, Rate 50 g/ha): 1
- Plant response rating, Morningglory ([16]; Rate 200 g/ha, POSTEMERGENCE): 9
- Plant response rating, Morningglory ([16]; Rate 200 g/ha, PREEMERGENCE): 4
- Plant response rating, Crabgrass ([17]; POSTEMERGENCE, Rate 50 g/ha): 4
- Plant response rating, Crabgrass ([17]; POSTEMERGENCE, Rate 200 g/ha): 5
- Plant response rating, Crabgrass ([17]; PREEMERGENCE, Rate 50 g/ha): 0
- Plant response rating, Crabgrass ([17]; Rate 200 g/ha, PREEMERGENCE): 8
- Plant response rating, Nutsedge ([18]; POSTEMERGENCE, Rate 50 g/ha): 2
- Plant response rating, Nutsedge ([18]; PREEMERGENCE, Rate 50 g/ha): 0
- Plant response rating, Nutsedge ([18]; Rate 200 g/ha, POSTEMERGENCE): 4
- Plant response rating, Nutsedge ([18]; Rate 200 g/ha, PREEMERGENCE): 0
